Where two headings read alike, the source gives them in different places. *1 amine or outer side, *2 acyl side, *3 side chain or, on linkers, in order; H or OH if unused. Where a SMILES comes first, the peptide text is derived from it. Where no end group is shown, it is not given here. The star is where a group is joined. Suc = O=C(CCC(=O)[*:2])[*:1]; X1 = C/C(C(=O)O)=C(\C)C(=O)*
Columns and labels:
[1] = Red blood cell (RBC) hemolysis assay; format: cell-based; conditions: 37° C., read-out: Percent Hemolysis; for hemolysis at 30 min: red blood cells (washed, harvested from whole blood)
Protocol: C. […] RBCs were harvested by centrifuging whole blood for 4 min. They were washed three times with 100 mM dibasic sodium phosphate at the desired pH, and resuspended in the same buffer to yield the initial volume. They were diluted 10 times in the same buffer, and 200 μL of this suspension was used for each tube. This yields […] RBCs per tube. Each tube contained 800 μL of buffer, 200 μL of the RBC suspension, and the peptide with or without polymer. Each sample was then repeated to verify reproducibility. The tubes were incubated for 30 minutes in a 37° C. water bath. They were spun for 5 min at full speed in the microcentrifuge. Lysis was determined by measuring the absorbance of the supernatant at 541 nm, reflecting the amount of hemoglobin that had been released into the supernatant. Percent hemolysis was calculated assuming 100% lysis to be measured by the hemoglobin released by the red blood cells in water; controls of RBCs in buffer with no peptide were also run.

[2] = Lability at pH 5: conversion of maleamic acid to amine and anhydride, followed by TNBS; format: physicochemical; conditions: sodium acetate buffer pH 5
Protocol: A. DM-poly-L-lysine: Dimethyl maleamic modified poly-L-lysine (10 mg/mL) was incubated in 10 mM sodium acetate buffer pH 5. At various times, aliquots (10 μg) were removed and added to 0.5 mL of 100 mM borax solution containing 0.4 mM trinitrobenzenesulfonate (TNBS). After 30 min, the absorbance of the solution at 420 nm was measured. To determine the concentration of amines at each time point, the extinction coefficient was determined for the product of TNBS and poly-L-lysine. Using this extinction coefficient we were able to calculate the amount of amines and maleamic groups at each time point. A plot of In (At/A0) as a function of time was a straight line whose slope was the negative of the rate constant for the conversion of maleamic acid to amine and anhydride, where At is the concentration of maleamic acid at a time t and A0 is the initial concentration of maleamic acid. For two separate experiments we calculated rate constants of […] which correspond to half lives of roughly 10 and 4 minutes, respectively.
B. DM-KL3: Dimethyl maleamic modified KL3 (0.1 mg/mL) was incubated in 40 mM sodium acetate buffer pH 5 and 1 mM cetyltrimetylammonium bromide. At various times, 10 μg aliquots were removed and added to 0.05 mL 1 M borax solution containing 4 mM TNBS. After 30 min, the absorbance of the solution at 420 nm was measured. […]

Compound	hemolysis ([1]; pH 5.4, 30 minutes)	hemolysis ([1]; pH 7.5, 30 minutes)	half-life [2]	rate constant for the conversion of maleamic acid to amine and anhydride [2]	hemolysis at 30 min ([1]; pH 5.4, 30 minutes)	hemolysis at 30 min ([1]; pH 7.5, 30 minutes)
C/C(C(=O)O)=C(\C)C(=O)NCCCC[C@H](NC(=O)/C(C)=C(/C)C(=O)O)C(=O)N[C@@H](CC(C)C)C(=O)N[C@@H](CC(C)C)C(=O)N[C@@H](CCCCNC(=O)/C(C)=C(/C)C(=O)O)C(=O)N[C@@H](CC(C)C)C(=O)N[C@@H](CC(C)C)C(=O)N[C@@H](CC(C)C)C(=O)N[C@@H](CCCCNC(=O)/C(C)=C(/C)C(=O)O)C(=O)N[C@@H](CC(C)C)C(=O)N[C@@H](Cc1c[nH]c2ccccc12)C(=O)N[C@@H](CC(C)C)C(=O)N[C@@H](CCCCNC(=O)/C(C)=C(/C)C(=O)O)C(=O)N[C@@H](CC(C)C)C(=O)N[C@@H](CC(C)C)C(=O)N[C@@H](CCCCNC(=O)/C(C)=C(/C)C(=O)O)C(=O)N[C@@H](CC(C)C)C(=O)N[C@@H](CC(C)C)C(=O)N[C@@H](CC(C)C)C(=O)N[C@@H](CCCCNC(=O)/C(C)=C(/C)C(=O)O)C(=O)N[C@@H](CC(C)C)C(=O)N[C@@H](CC(C)C)C(=O)O [DM-KL3] (X1-K(X1)LLK(X1)LLLK(X1)LWLK(X1)LLK(X1)LLLK(X1)LL-OH; N-terminus and C-terminus assumed)	37%	4.3%	~8 min	0.087 min⁻¹		
CC[C@H](C)[C@H](NC(=O)CN)C(=O)NCC(=O)N[C@@H](C)C(=O)N[C@H](C(=O)N[C@@H](CC(C)C)C(=O)N[C@@H](CCCCN)C(=O)N[C@H](C(=O)N[C@@H](CC(C)C)C(=O)N[C@H](C(=O)N[C@H](C(=O)NCC(=O)N[C@@H](CC(C)C)C(=O)N1CCC[C@H]1C(=O)N[C@@H](C)C(=O)N[C@@H](CC(C)C)C(=O)N[C@H](C(=O)N[C@@H](CO)C(=O)N[C@@H](Cc1c[nH]c2ccccc12)C(=O)N[C@H](C(=O)N[C@@H](CCCCN)C(=O)N[C@@H](CCCNC(=N)N)C(=O)N[C@@H](CCCCN)C(=O)N[C@@H](CCCNC(=N)N)C(=O)N[C@@H](CCC(N)=O)C(=O)N[C@@H](CCC(N)=O)C(N)=O)[C@@H](C)CC)[C@@H](C)CC)[C@@H](C)O)[C@@H](C)O)C(C)C)C(C)C [Melittin, reference compound]					85%	92%
CC(C)C[C@H](NC(=O)[C@H](CC(C)C)NC(=O)[C@H](CCCCNC(=O)CCC(=O)O)NC(=O)[C@H](CC(C)C)NC(=O)[C@H](CC(C)C)NC(=O)[C@H](CC(C)C)NC(=O)[C@H](CCCCNC(=O)CCC(=O)O)NC(=O)[C@H](CC(C)C)NC(=O)[C@H](CC(C)C)NC(=O)[C@H](CCCCNC(=O)CCC(=O)O)NC(=O)[C@H](CC(C)C)NC(=O)[C@H](Cc1c[nH]c2ccccc12)NC(=O)[C@H](CC(C)C)NC(=O)[C@H](CCCCNC(=O)CCC(=O)O)NC(=O)[C@H](CC(C)C)NC(=O)[C@H](CC(C)C)NC(=O)[C@H](CC(C)C)NC(=O)[C@H](CCCCNC(=O)CCC(=O)O)NC(=O)[C@H](CC(C)C)NC(=O)[C@H](CC(C)C)NC(=O)[C@H](CCCCNC(=O)CCC(=O)O)NC(=O)CCC(=O)O)C(=O)O [Succinyl-KL3] (Suc-K(Suc)LLK(Suc)LLLK(Suc)LWLK(Suc)LLK(Suc)LLLK(Suc)LL-OH; N-terminus and C-terminus assumed)	2%	1.3%				
KLLKLLLKLWLKLLKLLLKLL [KL3]	83%	62%				

Source: patent US20040162235A1, “Delivery of siRNA to cells using polyampholytes” (priority 2003, published 2004)
